Molecules are shown by their SMILES. pEC50, pKi: −log10 of the molar value.

A word on the pKi: it is −log10 of the Ki, conventionally taken in molar units. What is called pEC50 is the negative decadic logarithm of the EC50, by convention in mol/L. A higher pEC50 goes with a low EC50.

T1 sequence (P56817 whole entry): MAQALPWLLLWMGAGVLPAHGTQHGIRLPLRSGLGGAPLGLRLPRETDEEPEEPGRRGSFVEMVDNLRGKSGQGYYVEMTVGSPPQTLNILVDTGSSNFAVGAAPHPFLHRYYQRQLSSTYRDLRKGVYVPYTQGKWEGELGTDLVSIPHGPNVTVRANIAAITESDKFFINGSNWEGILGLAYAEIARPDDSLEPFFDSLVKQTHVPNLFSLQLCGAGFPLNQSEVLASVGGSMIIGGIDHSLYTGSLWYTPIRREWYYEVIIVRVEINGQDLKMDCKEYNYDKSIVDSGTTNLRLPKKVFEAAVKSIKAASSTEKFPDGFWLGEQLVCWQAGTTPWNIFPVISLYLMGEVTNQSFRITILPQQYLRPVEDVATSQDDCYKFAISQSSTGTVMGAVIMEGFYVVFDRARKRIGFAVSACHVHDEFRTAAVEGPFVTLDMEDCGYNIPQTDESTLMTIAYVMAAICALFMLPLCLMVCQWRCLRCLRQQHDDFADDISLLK

The first assay concerns the target T1, Beta-secretase 1 (Homo sapiens, UniProt P56817). The experiment in a line: Inhibition of recombinant BACE1 (unknown origin) using fluorogenic substrate.
As to `CC(C)CNC(=O)[C@@H](NC(=O)[C@H](C)C[C@H](O)[C@H](CC(C)C)NC(=O)[C@H](CNC(=O)OC(C)(C)C)NC(=O)C1=NO[C@@H]2OCC[C@H]12)C(C)C`, the pKi was 6.09. Still for that read-out and setting: the same measure for `CSC[C@H](NC(=O)C1=NO[C@H]2OCC[C@@H]12)C(=O)N[C@@H](CC(C)C)[C@@H](O)C[C@@H](C)C(=O)N[C@H](C(=O)NCC(C)C)C(C)C`: 6.26; for `CSC[C@H](NC(=O)C1=NO[C@@H]2OCC[C@H]12)C(=O)N[C@@H](CC(C)C)[C@@H](O)C[C@@H](C)C(=O)N[C@H](C(=O)NCC(C)C)C(C)C`: 7.96; for `COc1cccc(CNC[C@@H](O)[C@H](Cc2ccccc2)NC(=O)[C@H](CS(C)(=O)=O)NC(=O)C2=NO[C@H]3OCC[C@@H]23)c1`: 4.54. Still for that read-out and setting: under `CC(C)CNC(=O)[C@@H](NC(=O)[C@H](C)C[C@H](O)[C@H](CC(C)C)NC(=O)[C@H](CS(C)(=O)=O)NC(=O)C1=NO[C@@H]2OCCC[C@H]12)C(C)C` stands 7.55; under `CC(C)CNC(=O)[C@@H](NC(=O)[C@H](C)C[C@H](O)[C@H](CC(C)C)NC(=O)[C@H](CNC(=O)OC(C)(C)C)NC(=O)C1=NO[C@H]2OCC[C@@H]12)C(C)C`, 5.38. Same read-out and setting: under `COc1cccc(CNC[C@@H](O)[C@H](Cc2ccccc2)NC(=O)[C@H](CS(C)(=O)=O)NC(=O)C2=NO[C@@H]3OCC[C@H]23)c1` stands 4.39; under `CC(C)CNC(=O)[C@@H](NC(=O)[C@H](C)C[C@H](O)[C@H](CC(C)C)NC(=O)[C@H](CS(C)(=O)=O)NC(=O)C1=NO[C@@H]2OCC[C@H]12)C(C)C`, 6.96. Consider `CC(C)CNC(=O)[C@@H](NC(=O)[C@H](C)C[C@H](O)[C@H](CC(C)C)NC(=O)[C@H](CS(C)(=O)=O)NC(=O)C1=NO[C@H]2OCCC[C@@H]12)C(C)C`, for which the pKi is 6.20. Still for that read-out and setting: under `CC(C)CNC(=O)[C@@H](NC(=O)[C@H](C)C[C@H](O)[C@H](CC(C)C)NC(=O)[C@H](CS(C)(=O)=O)NC(=O)C1=NO[C@H]2OCC[C@@H]12)C(C)C` stands 6.55.

Another assay concerns the target T1, Beta-secretase 1. The experiment in a line: Inhibition of BACE1 (unknown origin) by cell-based assay.
Regarding `CSC[C@H](NC(=O)C1=NO[C@@H]2OCC[C@H]12)C(=O)N[C@@H](CC(C)C)[C@@H](O)C[C@@H](C)C(=O)N[C@H](C(=O)NCC(C)C)C(C)C`, the pEC50 is 6.46.

The values are drawn from ChEMBL document CHEMBL4229428, “Design, synthesis, X-ray studies, and biological evaluation of novel BACE1 inhibitors with bicyclic isoxazoline carboxamides as the P3 ligand” (Bioorg Med Chem Lett, 2018).
